Source: patent US20020160986A1, “Compounds having activity as inhibitors of cytochrome P450RAI” (priority 2000, published 2002)

Experiments:
RARβ = molecular target: T1, RARβ (Homo sapiens, UniProt P10826); assay: chimeric receptor transactivation assay, RARβ; type: cell-based; settings: value in parentheses
T1 sequence (P10826 183-417 limits assumed): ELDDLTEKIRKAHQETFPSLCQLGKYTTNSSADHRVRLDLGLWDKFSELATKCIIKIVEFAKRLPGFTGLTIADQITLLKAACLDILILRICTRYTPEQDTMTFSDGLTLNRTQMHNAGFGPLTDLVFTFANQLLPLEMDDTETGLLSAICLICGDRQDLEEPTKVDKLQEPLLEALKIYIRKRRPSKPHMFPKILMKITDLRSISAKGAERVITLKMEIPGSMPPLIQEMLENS
From the text: (§1) Assays described below measure the ability of a compound to bind to, and/or activate various retinoid receptor subtypes. When in these assays a compound binds to a given receptor subtype and activates the transcription of a reporter gene through that subtype, then the compound is considered an agonist of that receptor subtype. […] In the below described assays the ability of the compounds to bind to RAR60 , RAR62 , RARγ, RXR60 , RXR62 , and RXRγ receptors, and the ability or inability of the compounds to activate transcription of a reporter gene through these receptor subtypes can be tested.
(§2) As far as specific assays are concerned, a chimeric receptor transactivation assay which tests for agonist-like activity in the RAR60 , RARβ, and RARγ, receptor subtypes, and which is based on work published by Feigner P. L. and Holm M. (1989) Focus, 112 is described in detail in U.S. Pat. No. 5,455,265. The specification of U.S. Pat. No. 5,455,265 is hereby expressly incorporated by reference.
A holoreceptor transactivation assay and a ligand binding assay which measure the antagonist/agonist like activity of the compounds of the invention, or their ability to bind to the several retinoid receptor subtypes, respectively, are described in published PCT Application No. WO WO93/11755 (particularly on pages 30-33 and 37-41) published on Jun. 24, 1993, the specification of which is also incorporated herein by reference. […] The results obtained in this assay are expressed in EC50 numbers, as they are also in the chimeric receptor transactivation assay. The results of ligand binding assay are expressed in Kd numbers. (See Cheng et al. Biochemical Pharmacology Vol. 22 pp 3099-3108, expressly incorporated herein by reference.)

RARα [1] = molecular target: T2, RARα (Homo sapiens, UniProt P10276); assay: chimeric receptor transactivation assay, RARα; type: cell-based; settings: value in parentheses
T2 sequence (P10276 183-417 limits assumed): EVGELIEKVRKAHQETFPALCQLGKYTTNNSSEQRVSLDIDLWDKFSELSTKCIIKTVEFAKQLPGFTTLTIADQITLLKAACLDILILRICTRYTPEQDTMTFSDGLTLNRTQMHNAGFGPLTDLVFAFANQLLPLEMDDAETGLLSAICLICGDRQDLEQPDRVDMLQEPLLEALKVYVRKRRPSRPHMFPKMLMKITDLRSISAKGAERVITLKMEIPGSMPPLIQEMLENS
From the text: as §1
as §2, with “reference. The numeric results obtained with several preferred compounds of this invention in this assay are shown below in Table 1.” for “reference.”
(§3) A holoreceptor transactivation assay and a ligand binding assay which measure the antagonist/agonist like activity of the compounds of the invention, or their ability to bind to the several retinoid receptor subtypes, respectively, are described in published PCT Application No. WO WO93/11755 (particularly on pages 30-33 and 37-41) published on Jun. 24, 1993, the specification of which is also incorporated herein by reference. A detailed experimental procedure for holoreceptor transactivations has been described by Heyman et al. Cell 68,397-406, (1992); Allegretto et al. J. Biol. Chem. 268,26625-26633, and Mangelsdorf et al. The Retinoids: Biology, Chemistry and Medicine, pp 319-349, Raven Press Ltd., New York, which are expressly incorporated herein by reference. The results obtained in this assay are expressed in EC50 numbers, as they are also in the chimeric receptor transactivation assay. The results of ligand binding assay are expressed in Kd numbers. (See Cheng et al. Biochemical Pharmacology Vol. 22 pp 3099-3108, expressly incorporated herein by reference.)

RARγ = molecular target: T3, RARγ (Homo sapiens, UniProt P13631); assay: chimeric receptor transactivation assay, RARγ; type: cell-based; settings: value in parentheses
T3 sequence (P13631 185-419 limits assumed): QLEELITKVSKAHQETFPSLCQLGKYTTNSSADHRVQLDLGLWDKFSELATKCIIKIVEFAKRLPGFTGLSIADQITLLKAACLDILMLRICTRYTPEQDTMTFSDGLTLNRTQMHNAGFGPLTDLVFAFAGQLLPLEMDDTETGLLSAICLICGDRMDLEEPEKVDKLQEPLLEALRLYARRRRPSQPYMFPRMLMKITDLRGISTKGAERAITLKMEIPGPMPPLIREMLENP
From the text: as §1
as §2, with “reference. The numeric results obtained with several preferred compounds of this invention in this assay are shown below in Table 1.” for “reference.”
as §3

RARα [2] = molecular target: T4, RARα (Homo sapiens, UniProt P10276); assay: ligand binding assay, RARα; settings: read-out: RAR α Kd
T4 sequence (P10276 1-462): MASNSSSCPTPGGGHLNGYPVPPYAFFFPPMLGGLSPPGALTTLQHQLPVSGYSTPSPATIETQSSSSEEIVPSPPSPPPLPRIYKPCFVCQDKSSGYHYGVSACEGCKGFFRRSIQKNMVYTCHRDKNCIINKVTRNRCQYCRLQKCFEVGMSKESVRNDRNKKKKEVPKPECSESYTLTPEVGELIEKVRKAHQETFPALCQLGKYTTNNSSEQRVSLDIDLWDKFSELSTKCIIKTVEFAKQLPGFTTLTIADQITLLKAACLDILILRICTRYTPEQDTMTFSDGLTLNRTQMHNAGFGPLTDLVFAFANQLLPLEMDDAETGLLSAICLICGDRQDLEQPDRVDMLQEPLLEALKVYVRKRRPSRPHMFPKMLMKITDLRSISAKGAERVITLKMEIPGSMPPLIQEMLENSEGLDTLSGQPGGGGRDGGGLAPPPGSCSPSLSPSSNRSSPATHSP
From the text: as §1
as §3, with “The results obtained in this assay are expressed in EC50 numbers, as they are also in the chimeric receptor transactivation assay. The results of ligand binding assay are expressed in Kd numbers. (See Cheng et al. Biochemical Pharmacology Vol. 22 pp 3099-3108, expressly incorporated herein by reference.)” left out

Row | SMILES | RAR β (EFFICACY) (RARβ) | RAR α (EFFICACY) (RARα [1]) | RAR γ (EFFICACY) (RARγ) | Kd (RARα [2])
1 | CN(C1CC1)C1CCC(C)(C)c2cc(C#Cc3ccc(C(=O)O)cc3)ccc21 (stereo not drawn) [Compound 3, 4-[(5-Cyclopropyl-methyl-amino)-8,8-dimethyl-5,6,7,8-tetrahydro-naphthalene-2yl-ethynyl]-benzoic acid] | (54) | (28) | (52) | –
2 | CC1(C)CCC(=O)c2ccc(C#Cc3ccc(CC(=O)O)cc3)cc21 [Compound 5, 4-[(8,8-Dimethyl-5-oxo-5,6,7,8-tetrahydro-naphthalene-2-yl-ethynyl)-phenyl]-acetic acid] | (36) | – | – | –
3 | CN(C1CC1)C1CCC(C)(C)c2cc(C#Cc3ccc(CC(=O)O)cc3)ccc21 (stereo not drawn) [Compound 8, 4-[(5-(Cyclopropyl-methyl-amino)-8,8-dimethyl-5,6,7,8-tetrahydro-naphthalene-2-yl-ethynyl)-phenyl]-acetic acid] | (96) | – | – | –
4 | CC1(C)CCC(=O)c2ccc(C#Cc3ccc(C(=O)O)c(F)c3)cc21 [Compound 10, 2-Fluoro-4-(818-dimethyl-5-oxo-5,6,7,8-tetrahydro-naphthalen-2yl-ethynyl)-benzoic acid] | (86) | (146) | (94) | –
5 | CN(C1CC1)C1CCC(C)(C)c2cc(C#Cc3ccc(C(=O)O)c(F)c3)ccc21 (stereo not drawn) [Compound 13, 4-[5-(Cyclopropyl-methyl-amino)-8,8-dimethyl-5,6,7.8-tetrahydro-naphthalene-2-yl-ethynyl]-2-fluoro benzoic acid] | (6.6) | – | (9) | –
6 | CC1(C)CC2(CC2)Oc2ccc(C#Cc3ccc(C(=O)O)cc3)cc21 [Compound 40, Benzoic acid, 4-[(3,4-dihydro-4,4-dimethylspiro[2H-1-benzopyran-2,1′-cyclopropane]-6-yl)ethynyl]-] | (126) | (207) | (140) | –
7 | CC1(C)CC2(CC2)Oc2ccc(C#Cc3ccc(C(=O)O)c(F)c3)cc21 [Compound 44, 2-Fluoro-benzoic acid, 4-[(3,4-dihydro-4,4-dimethylspiro[2H-1-benzopyran-2,1′-cyclopropane]-6-yl)ethynyl]-] | (100) | (138) | (116) | –
8 | CC1(C)CC(C)(C)c2cc(C(=O)Oc3ccc(CC(=O)O)cc3)ccc2O1 [Compound 46, 2,2,4,4-Tetramethyl-chroman-6-carboxylic acid 4-(carboxymethyl)phenyl ester] | – | – | – | > 10 µM
9 | COC1(c2ccc(C#Cc3ccc(C(=O)O)cc3)cc2)CC1 [Compound 69, 4-[4-(1-Methoxycyclopropyl)-phenylethynyl]-benzoic acid] | (50) | (10) | (31) | –
10 | CC(C)OC1(c2ccc(C#Cc3ccc(C(=O)O)cc3)cc2)CC1 [Compound 73, 4-[4-(1-Isopropoxycyclopropyl)-phenylethynyl]-benzoic acid] | (39) | – | (24) | –

Continued, values first:

Row | RAR β (EFFICACY) (RARβ) | RAR α (EFFICACY) (RARα [1]) | RAR γ (EFFICACY) (RARγ) | Kd (RARα [2]) | SMILES
11 | (80) | – | (67) | – | Cc1cc(C#Cc2ccc(C(=O)O)cc2)ccc1C1(OCc2ccccc2)CC1 [Compound 81, 4-[4-(1-Benzyloxycyclopropyl)-3-methyl-phenylethynyl]-benzoic acid]
12 | (77) | (60) | (65) | – | Cc1cc(C#Cc2ccc(C(=O)O)cc2)ccc1C1(OC(C)C)CC1 [Compound 85, 4-[4-(1-Isopropoxycyclopropyl)-3-methyl-phenylethynyl]-benzoic acid]
13 | (50) | (20) | (46) | – | Cc1cc(C#Cc2ccc(C(=O)O)cc2)ccc1C1(OCC(C)(C)C)CC1 [Compound 89, 4-[4-[1-(2,2-Dimethylpropyloxy)-cyclopropyl]-3-methyl-phenylethynyl]-benzoic acid]
14 | (39) | (114) | (55) | – | CCc1cc(C#Cc2ccc(C(=O)O)cc2)ccc1C1(OCc2ccccc2)CC1 [Compound 93, 4-[4-(1-Benzyloxycyclopropyl)-3-ethyl-phenylethynyl]-benzoic acid]
15 | (36) | (15) | (10) | – | CCCNC1(c2ccc(C#Cc3ccc(C(=O)O)cc3)cc2)CC1 [Compound 108, 4-[4-(1-Propylamino-cyclopropyl)-phenylethynyl]-benzoic acid]
16 | (44) | – | (42) | – | CCCN(CCC)C1(c2ccc(C#Cc3ccc(C(=O)O)cc3)cc2)CC1 [Compound 110, 4-[4-(1-Dipropylamino-cyclopropyl)-phenylethynyl]-benzoic acid]
17 | (37) | – | – | – | O=C(O)c1ccc(C#Cc2ccc(C3(NCc4ccccc4)CC3)cc2)cc1 [Compound 112, 4-[4-(1-Benzylamino-cyclopropyl)-phenylethynyl]-benzoic acid]
